# Data published in PMC6112376, “Comprehensive Analyses and Prioritization of Tox21 10K Chemicals Affecting Mitochondrial Function by in-Depth Mechanistic Studies” (Environmental Health Perspectives, 2018).
# Where two headings read alike, the source gives them in different places.
# Legend:
# [1] = system: Caenorhabditis elegans (Bristol N2); test: C. elegans larval development and growth assay; conditions: for LEC (lowest effect concentration), larval growth assay: 48 h exposure
# hNSC = test: MMP assay in human neural stem cells (hNSC); assay type: cell-based; conditions: Homo sapiens, Neural stem cell; 1 h treatment; fresh re-sourced stocks; mean±SD of three experiments; read-out: hNSC IC50 (MMP)
# HepG2 cells [2] = test: cells; conditions: Homo sapiens; for Emax: HepG2, read-out: MMP assays efficacy (%) HepG2
# [3] = system: Nrf2/ARE (ARE-bla HepG2 cells); test: ARE β-lactamase reporter gene assay; assay type: cell-based, human; conditions: for EC50: Homo sapiens, read-out: ARE (HepG2) EC50
# HepG2 cells [4] = test: ROS-Glo hydrogen peroxide (ROS) assay; assay type: cell-based, human; conditions: Homo sapiens, read-out: ROS (HepG2) EC50
# HepG2 cells [5] = test: Intracellular ATP content (cell viability) assay; assay type: cell-based, human; conditions: for IC50: Homo sapiens, HepG2, 40 h treatment, mean±SD of three experiments
# [6] = system: p53 (p53-bla HCT-116 cells); test: p53 β-lactamase reporter gene assay; assay type: cell-based, human
# rat primary hepatocytes [7] = test: MMP assay in rat primary hepatocytes; conditions: for Rat hepatocytes (efficacy) (MMP): % of positive control, mean±SD of three experiments; for IC50: Rattus norvegicus, Hepatocyte
# [8] = system: HeLa cells expressing YFP-Parkin; test: Parkin translocation assay; assay type: cell-based, human
# HepG2 cells [9] = conditions: cited from earlier work
# [10] = system: isolated rat liver mitochondria; test: Oxygen consumption, Clark-type oxygen electrode; assay type: biochemical
# HepG2 cells [11] = system: HepG2 cells
# rat primary hepatocytes [12] = system: rat primary hepatocytes
# [13] = system: Caenorhabditis elegans strain PE255; test: In vivo C. elegans ATP status assay
# [14] = HepG2, 1 h, read-out: HepG2 IC50 Galactose (MMP)
# [15] = HepG2, 1 h, read-out: HepG2 IC50 Glucose (MMP)
# [16] = 16 h incubation, mean±SD of three experiments
# [17] = HepG2, 2 h treatment, mean±SD of three experiments
# [18] = 5 mM glucose, read-out: ATP (HepG2, glucose) IC50
# [19] = 10 mM galactose, read-out: ATP (HepG2, galactose) IC50
# [20] = 1 h, read-out: Rat hepatocytes IC50 (MMP)
# [21] = HeLa cells stably expressing YFP-Parkin, treated for 2 h
# [22] = HepG2, read-out: MMP assays IC50 (µM) HepG2
# [23] = read-out: MMP assays IC50 (µM) Rat Hepatocytes
smiles,measurement,setting,value
"Cc1cc(Cc2cc(C)cc(C(C)(C)C)c2O)c(O)c(C(C)(C)C)c1 [2,2′-Methylenebis(4-methyl-6-tert-butylphenol)]","LEC (lowest effect concentration), larval growth assay",[1],≤ 10 µM
same,IC50,hNSC,0.88 ± 0.25 µM
same,IC50,HepG2 cells [2]; [14],6.6 ± 1.12 µM
same,IC50,HepG2 cells [2]; [15],5.67 ± 1.02 µM
same,ARE (HepG2) EC50,[3]; [16],Inactive
same,EC50,HepG2 cells [4]; [17],31.4 ± 10.1 µM
same,IC50,HepG2 cells [5]; [18],34.1 ± 3.93 µM
same,IC50,HepG2 cells [5]; [19],34 µM
same,p53 (HCT-116) EC50,[6]; [16],Inactive
same,Rat hepatocytes (efficacy) (MMP),rat primary hepatocytes [7],−121±16.7%
same,IC50,rat primary hepatocytes [7]; [20],6.89 ± 1.44 µM
same,Parkin recruitment,[8]; [21],Inactive
CCc1cc(Cc2cc(CC)cc(C(C)(C)C)c2O)c(O)c(C(C)(C)C)c1,"LEC (lowest effect concentration), larval growth assay",[1],≤ 10 µM
same,IC50,hNSC,1.28 ± 0.56 µM
same,IC50,HepG2 cells [2]; [14],6.3 ± 0.43 µM
same,IC50,HepG2 cells [2]; [15],5.42 ± 0.62 µM
same,ARE (HepG2) EC50,[3]; [16],Inactive
same,EC50,HepG2 cells [4]; [17],29.6 ± 4.08 µM
same,IC50,HepG2 cells [5]; [18],21.6 ± 13.8 µM
same,IC50,HepG2 cells [5]; [19],29.8 ± 7.25 µM
same,p53 (HCT-116) EC50,[6]; [16],Inactive
same,Rat hepatocytes (efficacy) (MMP),rat primary hepatocytes [7],−103±17.9%
same,IC50,rat primary hepatocytes [7]; [20],29.9 ± 7.25 µM
same,Parkin recruitment,[8]; [21],Inactive
"CO[C@H]1/C=C/O[C@@]2(C)Oc3c(C)c(O)c4c(O)c(c(/C=N/N5CCN(C)CC5)c(O)c4c3C2=O)NC(=O)/C(C)=C\C=C\[C@H](C)[C@H](O)[C@@H](C)[C@@H](O)[C@@H](C)[C@H](OC(C)=O)[C@@H]1C [Rifampicin, reference compound]",MMP assays efficacy (%) qHTS-HepG2,HepG2 cells [9],-94±13%
same,IC50,"HepG2 cells [9]; read-out: MMP assays IC50 (µM), qHTS-HepG2",25.1 ± 6.38 µM
same,Potential Mechanism,[10],Inactive
same,"I-ADP, % of control (O2 consumption rate)",[10]; 4 µM,85 (46.4) % of control
same,"I-sub, % of control (O2 consumption rate)",[10]; 4 µM,89 (11.7) % of control
same,"II-ADP, % of control (O2 consumption rate)",[10]; 4 µM,95 (83.4) % of control
same,"II-sub, % of control (O2 consumption rate)",[10]; 4 µM,96 (23.5) % of control
same,"I-ADP, % of control (O2 consumption rate)",[10]; 20 µM,71 (39.1) % of control
same,"I-sub, % of control (O2 consumption rate)",[10]; 20 µM,86 (11.3) % of control
same,"II-ADP, % of control (O2 consumption rate)",[10]; 20 µM,95 (84.2) % of control
same,"II-sub, % of control (O2 consumption rate)",[10]; 20 µM,107 (26.2) % of control
same,HepG2 IC50 Galactose (MMP),HepG2 cells [11],Inactive
same,IC50,HepG2 cells [2]; [15],63.2 µM
same,IC50,HepG2 cells [2]; [22],15.5 µM
same,Emax,HepG2 cells [2],85%
same,MMP assays efficacy (%) Rat Hepatocytes,rat primary hepatocytes [12],-68±40%
same,Rat hepatocytes (efficacy) (MMP),rat primary hepatocytes [12],41.4±5.71 ( −97.5±6.10 ) %
same,EC50,"[3]; HepG2, 16 h",45.2 µM
same,EC50,"HepG2 cells [4]; HepG2, 2 h",34.5 µM
same,"ATP (HepG2, galactose) IC50",HepG2 cells [5],Inactive
same,"ATP (HepG2, glucose) IC50",HepG2 cells [5],Inactive
same,p53 (HCT-116) EC50,[6],Inactive
same,IC50,rat primary hepatocytes [7]; [20],41.4 µM
same,IC50,rat primary hepatocytes [7]; [23],6.15 ± 2.2 µM
same,Parkin recruitment,[8],Inactive
NNc1nc(-c2ccc(N)cc2)cs1 [2-Hydrazino-4-(4-aminophenyl) thiazole],MMP assays efficacy (%) qHTS-HepG2,HepG2 cells [9],-83±12%
same,IC50,HepG2 cells [9]; read-out: MMP assays IC50 (µM) qHTS-HepG2,0.06 ± 0.02 µM
same,LUM: mean difference in luminescence (ATP content) relative to plate controls,[13]; 0.5 µM,0.02471
same,LUM: mean difference in luminescence (ATP content) relative to plate controls,[13]; 1 µM,0.06159
same,LUM: mean difference in luminescence (ATP content) relative to plate controls,[13]; 5 µM,0.05233
same,LUM: mean difference in luminescence (ATP content) relative to plate controls,[13]; 10 µM,0.08412
same,LUM: mean difference in luminescence (ATP content) relative to plate controls,[13]; 25 µM,0.4284
same,LUM: mean difference in luminescence (ATP content) relative to plate controls,[13]; 50 µM,0.3261
same,LUM: mean difference in luminescence (ATP content) relative to plate controls,[13]; 75 µM,0.5564
same,LUM: mean difference in luminescence (ATP content) relative to plate controls,[13]; 100 µM,0.6002
same,minimal effective concentration,"[13]; Caenorhabditis elegans, read-out: LEC LUM: lowest effect concentration for luminescence, a measure of nematode ATP content",25 µM
same,"I-ADP, % of control (O2 consumption rate)","[10]; 100 µM, glutamate/malate driven state 3 respiration, isolated rat liver mitochondria",105 (55.7) % of control
same,"I-sub, % of control (O2 consumption rate)","[10]; 100 µM, glutamate/malate driven state 4 respiration, isolated rat liver mitochondria",109 (14.6) % of control
same,"II-ADP, % of control (O2 consumption rate)","[10]; 100 µM, succinate-driven state 3 respiration, isolated rat liver mitochondria",101 (68.1) % of control
same,"II-sub, % of control (O2 consumption rate)","[10]; 100 µM, succinate-driven state 4 respiration, isolated rat liver mitochondria",98 (21.3) % of control
same,Potential Mechanism,"[10]; mitochondrial respiration in isolated rat liver mitochondria, Clark type oxygen electrode, over tested concentrations",Inactive
same,EXT: mean difference in nematode size relative to plate controls,[1]; 0.5 µM,0.05389
same,EXT: mean difference in nematode size relative to plate controls,[1]; 1 µM,0.002943
same,EXT: mean difference in nematode size relative to plate controls,[1]; 5 µM,-0.00605
same,EXT: mean difference in nematode size relative to plate controls,[1]; 10 µM,0.1893
same,EXT: mean difference in nematode size relative to plate controls,[1]; 25 µM,0.2089
same,EXT: mean difference in nematode size relative to plate controls,[1]; 50 µM,0.1347
same,EXT: mean difference in nematode size relative to plate controls,[1]; 75 µM,0.3557
same,EXT: mean difference in nematode size relative to plate controls,[1]; 100 µM,0.3701
same,minimal effective concentration,"[1]; Caenorhabditis elegans, read-out: LEC EXT: lowest effect concentration for extinction, a measure of nematode size",25 µM
same,IC50,hNSC,1.76 ± 0.57 µM
same,IC50,HepG2 cells [2]; [14],18.5 ± 2.55 µM
same,IC50,HepG2 cells [2]; [15],15.3 ± 1.76 µM
same,IC50,HepG2 cells [2]; [22],0.4 µM
same,Emax,HepG2 cells [2],85%
same,EC50,"[3]; HepG2, 16 h incubation, mean±SD of three experiments",10.5 ± 8.1 µM
same,EC50,HepG2 cells [4]; [17],25.4 ± 3.24 µM
same,IC50,HepG2 cells [5]; [18],59.5 ± 23.5 µM
same,IC50,HepG2 cells [5]; [19],60.8 ± 6.99 µM
same,p53 (HCT-116) EC50,[6]; [16],Inactive
same,Rat hepatocytes (efficacy) (MMP),rat primary hepatocytes [7],−50.5±1.77%
same,IC50,rat primary hepatocytes [7]; [20],19.8 ± 11.5 µM
same,IC50,rat primary hepatocytes [7]; [23],3.55 ± 3.86 µM
same,MMP assays efficacy (%) Rat Hepatocytes,"rat primary hepatocytes [7]; rat hepatocytes, mean ± SD of three experiments",-67±14%
same,Parkin recruitment,[8]; [21],Inactive
